Test results as given in patent US20090110673A1, “METHODS OF REDUCING CELL DEATH FOLLOWING HYPOXIA / REOXYGENATION” (THE UNIVERSITY OF CHICAGO, priority 2006, published 2009).
“And” between values parts separate entries of the source, which are not always exact repeats. Equal values may be shown once. “Also recorded” adds a separate entry of the source.

What was measured:
[1] = tested on: nitric oxide (NO) generation in embryonic chick cardiomyocytes; assay: NO generation (DAF-2 fluorescence) during ischemia/reperfusion; format: cell-based; details: L-NAME 200 μM during I/R, n=8
Description: Ventricular embryonic chick cardiomyocytes were prepared according to published procedure. (Vanden Hoek T L, Becker L B, Shao Z, et al: Reactive oxygen species released from mitochondria during brief hypoxia induce preconditioning in cardiomyocytes, J. Biol. Chem. […]; 273:18092-18098, which is incorporated herein by reference). 10-day old chicken embryo hearts were removed, ventricular tissue minced into 0.5 mm fragments, enzymatically dispersed with 0.25% trypsin (Life Technologies, New York, N.Y.), centrifuged, 0.7×10^6 cells were pipetted onto 25 mm coverslips, and incubated with 5% CO2. Coverslips were checked for non-muscle cell contamination. Experiments were performed with 3-5 day cardiac cell cultures, by which time a synchronously contracting layer of cells could be visualized and viability exceeded 95%. […]
Endogenous NO generation has been implicated to have both protective and detrimental roles in various in vitro and in vivo models of I/R injury. To test whether endogenous NO was affected by hypocarbic or hypercarbic reperfusion, we continuously monitored the entire course of I/R using the NO indicator DAF-2 DA of cells treated as described in Example 2.
Cells were treated as described in Example 11, and the NO profile and cell viability was assessed in hypercarbic reperfusion compared with hypercarbic reperfusion with 200 μM L-NAME incubated during I/R as described above.

[2] = tested on: Ventricular embryonic chick cardiomyocytes; assay: Return of synchronous cell contraction after simulated ischemia/reperfusion; format: cell-based; details: for return of contractions (groups with return/total): no return in control cells
Description: (§1) Ventricular embryonic chick cardiomyocytes were prepared according to published procedure. (Vanden Hoek T L, Becker L B, Shao Z, et al. Reactive oxygen species released from mitochondria during brief hypoxia induce preconditioning in cardiomyocytes, J. Biol. Chem. […]; 273:18092-18098, which is incorporated herein by reference). 10-day old chicken embryo hearts were removed, ventricular tissue minced into 0.5 mm fragments, enzymatically dispersed with 0.025% trypsin (Life Technologies, New York, N.Y.), centrifuged, 0.7×10^6 cells were pipetted onto 25 mm coverslips, and incubated with 5% CO2. Coverslips were checked for non-muscle cell contamination. Experiments were performed with 3-5 day cardiac cell cultures, by which time a synchronously contracting layer of cells could be visualized and viability exceeded 95%.
(§2) Normoxic perfusate used for baseline conditions and for reperfusion subsequent to ischemia contained oxygenated balanced salt solution (BSS) with a PO2 OF 149 torr, PCO2 of 40 torr, pH of 7.4, and [K]^+ of 4.0 mEq/L, and glucose (5.6 mM). To simulate ischemia, the perfusate contained BSS with 2-deoxyglucose (2-DOG) (20 mM) rather than glucose and [K]^+ of 8.0 mEq/L. The ischemic perfusate was equilibrated with 80% N2 and 20% CO2 prior to use to produce a PO2 of ˜5 torr, a PCO2 of 144 torr and a final pH of 6.8.
Contractions were assessed by monitoring synchronous movement within the same field of cells as previously reported. A return of contraction following simulated ischemia/reperfusion was indicated when contractions could be seen throughout the field of cells following the three hour period of reperfusion.

[3] = tested on: Ventricular embryonic chick cardiomyocytes; assay: Cell death (propidium iodide viability assay) after simulated ischemia/reperfusion; format: cell-based
Description: Ventricular embryonic chick cardiomyocytes were prepared according to published procedure. […] Coverslips were checked for non-muscle cell contamination.
(§3) Coverslips with contracting cells were placed in a 1.2 mL Sykes-Moore perfusion chamber (Bellco Glass Inc., Vineland, N.J.). The chamber and inflow tubing were maintained at 37° C. Perfusate was supplied to the chamber (0.25 ml/min) via stainless steel tubing to minimize diffusive entry of ambient O2.
Cell viability was assessed with the fluorochrome propidium iodide (PI) (5 μM, Molecular Probes, Eugene, Oreg.). PI is excluded from viable cells, but enters cells and binds to chromatin after loss of cell membrane integrity. The cells then become highly fluorescent (excitation wavelength of 540 nm and a 590 nm band pass emission filter). PI was used to quantify cell death throughout the entire time of each experiment. […] All cells in the field studied were stained with PI at the end of the experiment by permeabilizing the cells with digitonin (300 μM). Percent cell death was then calculated as the PI fluorescence at any given time point relative to the maximal fluorescence value seen after digitonin exposure.
(§4) For each experiment a field of about 500 cells was observed. Treatment and control groups were matched in sets containing cells isolated and cultured on the same day so as to eliminate variability due to cell batch. Additional 25 mm coverslips were used for replicate experiments (“n”). Results are reported as means plus or minus S.E.M. and two-tailed unpaired t-tests comparing similar time points throughout ischemia and reperfusion were used as tests of significance, with p<0.05 considered to be significant.

[4] = tested on: reactive oxygen species (ROS) in embryonic chick cardiomyocytes; assay: Intracellular ROS (DCF fluorescence) at reperfusion after simulated ischemia; format: cell-based; details: for maximal DCF fluorescence intensity: control 2.8±0.2 a.u.
Description: as §1, §3, §2
Intracellular oxidant stress due to ROS was monitored real time with the intracellular probe 2′,7′-dichlorofluorescin diacetate (DCFH-DA, 5 μM, Molecular Probes, Eugene, Oreg.) as described in published literature (Vanden Hoek, F L, et al., Reactive oxygen species released from mitochondria during brief hypoxia induce preconditioning in cardiomyocytes, J. Biol. Chem. […]; 273:18092-18098, which is incorporated by reference herein; Vanden Hoek, T L, et al, Preconditioning in cardiomyocytes protects by attenuating oxidant stress at reperfusion, Circ Res 2000; 86:534-540, which is incorporated by reference herein; Vanden Hoek, T L, Reperfusion, not simulated ischemia initiates intrinsic apoptosis injury in chick cardiomyocytes Am J. Physiol Heart Physiol 2003; 284:H141-150, which is incorporated by reference herein). DCFH-DA is cleaved by cellular esterases upon entry into the cells, trapping the nonfluorescent 2′,7′-dichlorofluorescin (DCFH) inside. ROS, particularly hydrogen peroxide (H2O2) and hydroxyl radical generate the fluorescent product dichlorofluorescein (DCF) by causing the oxidation of DCFH. Increases in DCF fluorescence result from DCFH oxidation to DCF. DCF fluorescence was measured at an excitation wavelength of 480 nm, and a 520 nm band pass emission filter. Attention was focused on the maximal DCF fluorescence intensity value during the first minutes of reperfusion for comparison. All measurements were expressed in arbitrary units (a.u.) of fluorescence.
as §4

[5] = tested on: mitochondrial respiration; assay: Decrease of mitochondrial respiration; details: dose administered to achieve protection
[6] = tested on: reactive oxygen species (ROS) in embryonic chick cardiomyocytes; assay: ROS (DCF fluorescence) during hypocarbic/normocarbic/hypercarbic reperfusion; format: cell-based; details: apocynin 300 μM during reperfusion
Description: Ventricular embryonic chick cardiomyocytes were prepared according to published procedure. (Vanden Hoek T L, Becker L B, Shao Z, et al: Reactive oxygen species released from mitochondria during brief hypoxia induce preconditioning in cardiomyocytes, J. Biol. Chem. […]; 273:18092-18098, which is incorporated herein by reference). 10-day old chicken embryo hearts were removed, ventricular tissue minced into 0.5 mm fragments, enzymatically dispersed with 0.25% trypsin (Life Technologies, New York, N.Y.), centrifuged, 0.7×10^6 cells were pipetted onto 25 mm coverslips, and incubated with 5% CO2. Coverslips were checked for non-muscle cell contamination. Experiments were performed with 3-5 day cardiac cell cultures, by which time a synchronously contracting layer of cells could be visualized and viability exceeded 95%.
To simulate ischemia, the perfusate contained BSS with 2-deoxyglucose (2-DOG) (20 mM) rather than glucose, 18 mM NaCO3 and [K]^+ of 8.0 mEq/L, and was equilibrated with 80% N2 and 20% CO2 to produce a final PO2 of 3-5 torr, PCO2 of 144 torr, and pH 6.8. In addition, 20 mM of glycolytic inhibition 2-deoxyglucose was added to better model adenosine triphosphate depletion.
For perfusion, three perfusate solutions were used: normocarbic reperfusion perfusate, hypocarbic reperfusion perfusate and hypercarbic reperfusion perfusate. […]

[7] = 20 μM NADH isomer at reperfusion

## COC(=O)[C@@H](N)CCCNC(=N)N[N+](=O)[O-] [L-NAME, N^G-nitro-L-arginine methyl ester]
[1]
  NO generation (DAF-2 fluorescence) during hypercarbic reperfusion: blocked maintenance of the sustained NO levels; also recorded: reduction of the sustained increase of NO generation

## O=C(O)c1ccc2cc3ccccc3cc2c1 [2-anthracene-carboxylic acid]
[2]; 0.1 μM, first 10 minutes of reperfusion, control 0/7
  return of synchronous contractions (groups with return/total): 5/5
[3]; 0.1 μM, first 10 minutes of reperfusion, control 47.1±3.0%, n=5
  I/R induced cell death: 26.1±4.0%
[3]; 1 μM as printed in Example 4, first 10 minutes of reperfusion, control 47.1±3.0%, n=5
  cell death: 26.1±4.0%
[4]; 0.1 μM, first 10 minutes of reperfusion, n=3
  maximal DCF fluorescence intensity: 1.7±0.1 a.u.
[5]
  decrease of mitochondrial respiration: 10-15%

## C=C(C)[C@H]1Cc2c(ccc3c2O[C@@H]2COc4cc(OC)c(OC)cc4[C@@H]2C3=O)O1 [rotenone]
[3]; all tested doses of rotenone, including nanomolar doses for first 15 minutes of reperfusion
  protection against I/R injury (cell protection): no tested dose of rotenone conferred cell protection
[3]; rotenone 100 nM, first 15 minutes of reperfusion, control 50.2±3.0%, n=3
  cell death: 61.3±1.6%
[3]; rotenone 1 μM, first 15 minutes of reperfusion, control 50.2±3.0%, n=3
  cell death: 77.4±6.6% and 77.1±6.6%
[3]; rotenone 10 μM, first 15 minutes of reperfusion, control 50.2±3.0%, n=3
  cell death: 66.1±3.4% and 66.2±3.4%
[4]; rotenone 5 μM (representative of all doses), control 2.4±0.3 a.u., n=5
  maximal peak DCF fluorescence intensity (reperfusion ROS): 0.7±0.1 a.u.

## NC(=O)C1=CN([C@@H]2O[C@H](COP(=O)(O)OP(=O)(O)OC[C@H]3O[C@@H](n4cnc5c(N)ncnc54)[C@H](O)[C@@H]3O)[C@@H](O)[C@H]2O)C=CC1 [β-NADH]
[2]; [7]
  return of contractions (groups with return/total): absence of contractile return
[3]; exogenous β-NADH 20 μM, first 10 minutes of reperfusion
  I/R cell death versus control: showed no benefit
[4]; exogenous β-NADH 20 μM, first 10 minutes of reperfusion, control 86.2±19.6%, n=8
  percent increase in ROS generation during reperfusion over ischemia: 511±123%

## COc1cc(C(C)=O)ccc1O [apocynin]
[6]; hypocarbic
  ROS burst (DCF fluorescence) in hypocarbic reperfusion: did not attenuate the reperfusion ROS burst; also recorded: increased the ROS burst
[6]; normocarbic
  ROS burst (DCF fluorescence) in normocarbic reperfusion: did not attenuate the reperfusion ROS burst; also recorded: increased the ROS burst

## CCN(CC)C(=S)S [DDC, diethyldithiocarbamic acid]
[3]; DDC 1 mM during reperfusion, control 49.7±6.7%, n=5
  I/R induced cell death: 15.7±4.7%
[4]; DDC 1 mM during simulated ischemia and first 15-30 min of reperfusion, n=5
  maximal DCF fluorescence intensity: 1.6±0.1 a.u.

## NC(=O)C1=CN([C@H]2O[C@H](COP(=O)(O)OP(=O)(O)OC[C@H]3O[C@@H](n4cnc5c(N)ncnc54)[C@H](O)[C@@H]3O)[C@@H](O)[C@H]2O)C=CC1 [α-NADH]
[2]; [7]
  return of contractions (groups with return/total): 5/5
[3]; exogenous α-NADH 20 μM, control 47.1±3.0%, n=5
  I/R cell death: 13.8±1.3%
[4]; α-NADH 20 μM co-treated with β-NADH 20 μM
  effect on β-NADH induced increase in ROS: blocked this increase in ROS; also recorded: reversal of the increase was observed

## C/C=C(C)/C=C/C=C/[C@H](OC)[C@@H](C)[C@@H](OC)[C@@H](C)CCc1oc2c(O)c(OC)cc(OC)c2c(=O)c1C [stigmatellin]
[2]; stigmatellin 2-20 nM, first 15 minutes of reperfusion
  return of contractions (groups with return/total): 5/5
[3]; stigmatellin 20 nM, first 15 minutes of reperfusion, control 50.2±3.0%, n=3
  cell death: 20.3±5.0%
[3]; stigmatellin 100 μM, 3 hours of reperfusion, control 50.2±3.0%, n=3
  cell death: 80.1±6.0%
[3]; stigmatellin 100 μM, first 15 minutes of reperfusion, control 50.2±3.0%, n=3
  cell death: 52.3±3.0%
[3]; stigmatellin 2-20 nM, first 15 min of reperfusion, control 53.8±3.5%, n=5
  I/R cell death: 10.8±2.9%
[4]; stigmatellin 100 μM, first 15 min of reperfusion
  reperfusion ROS: ROS was abrogated
[4]; stigmatellin 2-20 nM, first 15 min of reperfusion, control 2.4±0.3 a.u., n=5
  maximal peak DCF fluorescence intensity: 0.46±0.02 a.u.
[4]; stigmatellin given during the whole 3 hour course of reperfusion
  reperfusion ROS: ROS was attenuated
